# From PubChem BioAssay (NCI)
#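 Briefly, cells in 96-well plates were exposed to five compound concentrations for 48 h, and endpoints were estimated by linear interpolation. GI50: concentration for 50% inhibition of growth. TGI: concentration producing complete growth inhibition.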
# Key:
# Test in all cases: NCI tumour cell line growth inhibition, 48 h
# [1] = tested on: 786-0 renal
# [2] = tested on: A549 NSCLC
# [3] = tested on: ACHN renal
# [4] = tested on: CAKI-1 renal
# [5] = tested on: CCRF-CEM leukemia
# [6] = tested on: COLO 205 colon
# [7] = tested on: DLD-1 colon
# [8] = tested on: DMS 114 small cell lung
# [9] = tested on: EKVX NSCLC
# [10] = tested on: HCC-2998 colon
# [11] = tested on: HCT-116 colon
# [12] = tested on: HCT-15 colon
# [13] = tested on: HL-60(TB) leukemia
# [14] = tested on: HOP-18 NSCLC
# [15] = tested on: HOP-62 NSCLC
# [16] = tested on: HOP-92 NSCLC
# [17] = tested on: HT29 colon
# [18] = tested on: IGROV1 ovarian
# [19] = tested on: K-562 leukemia
# [20] = tested on: KM12 colon
# [21] = tested on: KM20L2 colon
# [22] = tested on: LOX IMVI melanoma
# [23] = tested on: LXFL 529 NSCLC
# [24] = tested on: M14 melanoma
# [25] = tested on: M19-MEL melanoma
# [26] = tested on: MALME-3M melanoma
# [27] = tested on: MOLT-4 leukemia
# [28] = tested on: NCI-H226 lung
# [29] = tested on: NCI-H23 lung
# [30] = tested on: NCI-H460 lung
# [31] = tested on: OVCAR-3 ovarian
# [32] = tested on: OVCAR-4 ovarian
# [33] = tested on: OVCAR-5 ovarian
# [34] = tested on: OVCAR-8 ovarian
# [35] = tested on: RPMI-8226 leukemia
# [36] = tested on: RXF 393 renal
# [37] = tested on: RXF-631 renal
# [38] = tested on: SF-268 CNS
# [39] = tested on: SF-295 CNS
# [40] = tested on: SF-539 CNS
# [41] = tested on: SK-MEL-2 melanoma
# [42] = tested on: SK-MEL-28 melanoma
# [43] = tested on: SK-MEL-5 melanoma
# [44] = tested on: SK-OV-3 ovarian
# [45] = tested on: SN12C renal
# [46] = tested on: SNB-19 CNS
# [47] = tested on: SNB-75 CNS
# [48] = tested on: SNB-78 CNS
# [49] = tested on: SR leukemia
# [50] = tested on: SW-620 colon
# [51] = tested on: TK-10 renal
# [52] = tested on: U251 CNS
# [53] = tested on: UACC-257 melanoma
# [54] = tested on: UACC-62 melanoma
# [55] = tested on: UO-31 renal
# [56] = tested on: XF 498 CNS
# [57] = tested on: DMS 273 small cell lung
# [58] = tested on: NCI-H522 lung
# [59] = tested on: A498 renal
# [60] = tested on: BT-549 breast
# [61] = tested on: DU-145 prostate
# [62] = tested on: HS 578T breast
# [63] = tested on: MCF7 breast
# [64] = tested on: MDA-MB-231 breast
# [65] = tested on: MDA-MB-435
# [66] = tested on: MDA-N
# [67] = tested on: PC-3 prostate
# [68] = tested on: T-47D breast
smiles,measurement,setting,value
C[P+](C)(C)C,TGI,[1],> 100 µM
same,TGI,[2],> 100 µM
same,TGI,[3],> 100 µM
same,TGI,[4],> 100 µM
same,TGI,[5],> 100 µM
same,TGI,[6],> 100 µM
same,TGI,[7],> 100 µM
same,TGI,[8],> 100 µM
same,TGI,[9],> 100 µM
same,TGI,[10],> 100 µM
same,TGI,[11],> 100 µM
same,TGI,[12],> 100 µM
same,TGI,[13],> 100 µM
same,TGI,[14],> 100 µM
same,TGI,[15],> 100 µM
same,TGI,[16],> 100 µM
same,TGI,[17],> 100 µM
same,TGI,[18],> 100 µM
same,TGI,[19],> 100 µM
same,TGI,[20],> 100 µM
same,TGI,[21],> 100 µM
same,TGI,[22],> 100 µM
same,TGI,[23],> 100 µM
same,TGI,[24],> 100 µM
same,TGI,[25],> 100 µM
same,TGI,[26],> 100 µM
same,TGI,[27],> 100 µM
same,TGI,[28],> 100 µM
same,TGI,[29],> 100 µM
same,TGI,[30],> 100 µM
same,TGI,[31],> 100 µM
same,TGI,[32],> 100 µM
same,TGI,[33],> 100 µM
same,TGI,[34],> 100 µM
same,TGI,[35],> 100 µM
same,TGI,[36],> 100 µM
same,TGI,[37],> 100 µM
same,TGI,[38],> 100 µM
same,TGI,[39],> 100 µM
same,TGI,[40],> 100 µM
same,TGI,[41],> 100 µM
same,TGI,[42],> 100 µM
same,TGI,[43],> 100 µM
same,TGI,[44],> 100 µM
same,TGI,[45],> 100 µM
same,TGI,[46],> 100 µM
same,TGI,[47],> 100 µM
same,TGI,[48],> 100 µM
same,TGI,[49],> 100 µM
same,TGI,[50],> 100 µM
same,TGI,[51],> 100 µM
same,TGI,[52],> 100 µM
same,TGI,[53],> 100 µM
same,TGI,[54],> 100 µM
same,TGI,[55],> 100 µM
same,TGI,[56],> 100 µM
O=C1N2Cc3c4ccc5c3CN3C(=O)N6Cc7c(ccc(c7CN1C6(c1ccccc1)C23c1ccccc1)OCCOCCOc1cc(Br)c(Br)cc1OCCOCCO4)OCCOCCOc1cc(Br)c(Br)cc1OCCOCCO5 (stereo unspecified),TGI,[1],> 100 µM
same,TGI,[2],> 100 µM
same,TGI,[3],> 100 µM
same,TGI,[4],> 100 µM
same,TGI,[5],> 100 µM
same,TGI,[7],42.1 µM
same,TGI,[8],> 100 µM
same,TGI,[57],> 100 µM
same,TGI,[9],> 100 µM
same,TGI,[10],> 100 µM
same,TGI,[11],> 100 µM
same,TGI,[12],67.7 µM
same,TGI,[14],> 100 µM
same,TGI,[15],> 100 µM
same,TGI,[16],90 µM
same,TGI,[17],> 100 µM
same,TGI,[18],> 100 µM
same,TGI,[19],> 100 µM
same,TGI,[20],> 100 µM
same,TGI,[21],> 100 µM
same,TGI,[23],> 100 µM
same,TGI,[24],> 100 µM
same,TGI,[25],> 100 µM
same,TGI,[26],> 100 µM
same,TGI,[27],> 100 µM
same,TGI,[28],> 100 µM
same,TGI,[29],> 100 µM
same,TGI,[30],> 100 µM
same,TGI,[58],> 100 µM
same,TGI,[31],> 100 µM
same,TGI,[32],> 100 µM
same,TGI,[34],> 100 µM
same,TGI,[35],> 100 µM
same,TGI,[36],> 100 µM
same,TGI,[37],> 100 µM
same,TGI,[38],> 100 µM
same,TGI,[40],37.9 µM
same,TGI,[41],> 100 µM
same,TGI,[42],> 100 µM
same,TGI,[43],> 100 µM
same,TGI,[44],> 100 µM
same,TGI,[45],> 100 µM
same,TGI,[46],> 100 µM
same,TGI,[47],> 100 µM
same,TGI,[48],> 100 µM
same,TGI,[49],> 100 µM
same,TGI,[50],28.3 µM
same,TGI,[51],> 100 µM
same,TGI,[52],> 100 µM
same,TGI,[53],> 100 µM
same,TGI,[54],> 100 µM
same,TGI,[55],> 100 µM
CCC1C(C#N)=C(O)NC(O)=C1C#N,TGI,[59],> 100 µM
same,TGI,[2],> 100 µM
same,TGI,[3],> 100 µM
same,TGI,[4],> 100 µM
same,TGI,[6],> 100 µM
same,TGI,[7],> 100 µM
same,TGI,[8],> 100 µM
same,TGI,[57],> 100 µM
same,TGI,[9],> 100 µM
same,TGI,[10],> 100 µM
same,TGI,[11],> 100 µM
same,TGI,[12],> 100 µM
same,TGI,[14],> 100 µM
same,TGI,[15],> 100 µM
same,TGI,[16],> 100 µM
same,TGI,[17],> 100 µM
same,TGI,[18],> 100 µM
same,TGI,[20],> 100 µM
same,TGI,[21],> 100 µM
same,TGI,[22],> 100 µM
same,TGI,[23],> 100 µM
same,TGI,[24],> 100 µM
same,TGI,[25],> 100 µM
same,TGI,[26],> 100 µM
same,TGI,[28],> 100 µM
same,TGI,[29],> 100 µM
same,TGI,[30],> 100 µM
same,TGI,[58],> 100 µM
same,TGI,[31],> 100 µM
same,TGI,[32],> 100 µM
same,TGI,[33],> 100 µM
same,TGI,[34],> 100 µM
same,TGI,[35],> 100 µM
same,TGI,[36],> 100 µM
same,TGI,[37],> 100 µM
same,TGI,[38],> 100 µM
same,TGI,[39],> 100 µM
same,TGI,[40],> 100 µM
same,TGI,[41],> 100 µM
same,TGI,[42],> 100 µM
same,TGI,[43],> 100 µM
same,TGI,[44],> 100 µM
same,TGI,[45],> 100 µM
same,TGI,[46],> 100 µM
same,TGI,[47],> 100 µM
same,TGI,[48],> 100 µM
same,TGI,[50],> 100 µM
same,TGI,[51],> 100 µM
same,TGI,[52],> 100 µM
same,TGI,[53],> 100 µM
same,TGI,[54],> 100 µM
same,TGI,[55],> 100 µM
same,TGI,[56],> 100 µM
C[N+](C)(C)CC1CCC(C[N+](C)(C)C)C1=O (stereo unspecified),TGI,[1],4.06 µM
same,TGI,[59],21.9 µM
same,TGI,[2],45.8 µM
same,TGI,[3],3.49 µM
same,TGI,[60],30.7 µM
same,TGI,[4],1.55 µM
same,GI50,[5],0.258 µM
same,TGI,[5],1.47 µM
same,GI50,[6],0.457 µM
same,TGI,[6],1.58 µM
same,TGI,[7],> 100 µM
same,TGI,[8],6.74 µM
same,TGI,[57],6.37 µM
same,TGI,[61],30.5 µM
same,GI50,[9],4.43 µM
same,TGI,[9],17.5 µM
same,TGI,[10],22.5 µM
same,TGI,[11],3.44 µM
same,TGI,[12],4.18 µM
same,GI50,[13],0.309 µM
same,TGI,[13],0.995 µM
same,TGI,[14],1.85 µM
same,TGI,[15],36.1 µM
same,TGI,[16],2.28 µM
same,TGI,[62],91.5 µM
same,TGI,[17],3.4 µM
same,TGI,[18],13.6 µM
same,TGI,[19],1.34 µM
same,TGI,[20],16.3 µM
same,TGI,[21],9.78 µM
same,TGI,[22],10.3 µM
same,TGI,[23],1.57 µM
same,TGI,[24],3.35 µM
same,TGI,[25],3.83 µM
same,TGI,[26],2.28 µM
same,TGI,[63],6.05 µM
same,TGI,[64],41.3 µM
same,TGI,[65],30.7 µM
same,TGI,[66],19.3 µM
same,GI50,[27],0.25 µM
same,TGI,[27],0.801 µM
same,TGI,[28],23.3 µM
same,TGI,[29],8.27 µM
same,TGI,[30],62.8 µM
same,TGI,[31],5.32 µM
same,TGI,[32],10.8 µM
same,TGI,[33],14.4 µM
same,GI50,[34],14.3 µM
same,TGI,[34],38 µM
same,TGI,[67],31.3 µM
same,TGI,[35],27.2 µM
same,TGI,[36],3.71 µM
same,TGI,[37],36.4 µM
same,GI50,[38],7.26 µM
same,TGI,[38],21.2 µM
same,TGI,[39],35.9 µM
same,TGI,[40],15.5 µM
same,TGI,[41],36.9 µM
same,GI50,[42],5.99 µM
same,TGI,[42],11.1 µM
same,TGI,[43],23.8 µM
same,TGI,[44],42 µM
same,TGI,[45],8.18 µM
same,TGI,[46],33.5 µM
same,TGI,[47],3.51 µM
same,TGI,[48],5.26 µM
same,GI50,[50],1.18 µM
same,TGI,[50],2.86 µM
same,TGI,[68],8.28 µM
same,TGI,[51],6.39 µM
same,TGI,[52],17.1 µM
same,TGI,[53],9.05 µM
same,TGI,[54],17.9 µM
same,TGI,[55],8.51 µM
same,TGI,[56],3.74 µM
